{"source": "paper PMC6078708", "about": "(Neuropharmacology, 2018)", "key": {"[1]": {"target": "T1, mouse 5-HT3AR (Mus musculus, UniProt P23979)", "T1 sequence (P23979 24-489)": "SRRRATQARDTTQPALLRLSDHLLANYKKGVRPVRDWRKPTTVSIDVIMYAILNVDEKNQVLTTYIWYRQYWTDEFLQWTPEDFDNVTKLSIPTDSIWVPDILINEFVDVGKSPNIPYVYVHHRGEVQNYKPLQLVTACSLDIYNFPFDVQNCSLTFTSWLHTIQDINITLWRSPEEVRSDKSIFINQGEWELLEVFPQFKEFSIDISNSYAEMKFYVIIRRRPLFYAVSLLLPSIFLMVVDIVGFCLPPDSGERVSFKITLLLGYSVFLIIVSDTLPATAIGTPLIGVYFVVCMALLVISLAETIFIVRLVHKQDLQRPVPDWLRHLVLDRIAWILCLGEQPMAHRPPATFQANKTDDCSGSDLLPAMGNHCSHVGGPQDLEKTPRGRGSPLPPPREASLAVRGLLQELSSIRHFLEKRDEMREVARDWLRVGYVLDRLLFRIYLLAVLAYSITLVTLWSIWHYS", "settings": "for response evoked by maximal agonist concentration in presence of compound: compound 100 μM, 30 μM 5-HT", "procedure": "(§1) Site-directed mutagenesis was performed using the QuikChange mutagenesis kit (Agilent Technologies) and verified by nucleotide sequencing (Source Bioscience).\n(§2) Heterologous expression was achieved by cytoplasmic injection of in vitro transcribed cRNA. Prior to in vitro synthesis of cRNA plasmid cDNA was linearized by restriction enzyme digestion and purified with QIAQuik PCR purification kit (Qiagen). In vitro synthesis of cRNA was performed using mMessage mMachine SP6 and T7 transcription kits (ThermoFisher Scientific). Oocytes were injected with approximately 9 ng cRNA using a Drummond variable volume microinjector. […] Experiments were performed on oocytes after 3–5 days of incubation. […] Application of compounds was controlled by LabChart software (AD Instruments) using a BPS-8 solenoid valve solution exchange system (ALA Scientific Inc). Allosteric modulators were pre-applied for 30 s before co-application with agonist.\n(§3) Data are presented as means ± SEM of at least three independent experiments, that were conducted on separate oocytes. For multiple comparisons, statistical significance was determined with an unpaired one-way analysis of variance (ANOVA). Post-hoc analysis was performed with a Tukey multiple comparison test. For individual comparisons, statistical significance was determined using unpaired t-tests."}, "[2]": {"target": "α7/5-HT3AR chimera (extracellular domain of human α7 nAChR fused to transmembrane and C-terminal domain of mouse 5-HT3AR) (UniProt P23979+P36544, M226I/T225I)", "sequence (P36544+P23979 fused P36544:T225I/P36544:M226I)": "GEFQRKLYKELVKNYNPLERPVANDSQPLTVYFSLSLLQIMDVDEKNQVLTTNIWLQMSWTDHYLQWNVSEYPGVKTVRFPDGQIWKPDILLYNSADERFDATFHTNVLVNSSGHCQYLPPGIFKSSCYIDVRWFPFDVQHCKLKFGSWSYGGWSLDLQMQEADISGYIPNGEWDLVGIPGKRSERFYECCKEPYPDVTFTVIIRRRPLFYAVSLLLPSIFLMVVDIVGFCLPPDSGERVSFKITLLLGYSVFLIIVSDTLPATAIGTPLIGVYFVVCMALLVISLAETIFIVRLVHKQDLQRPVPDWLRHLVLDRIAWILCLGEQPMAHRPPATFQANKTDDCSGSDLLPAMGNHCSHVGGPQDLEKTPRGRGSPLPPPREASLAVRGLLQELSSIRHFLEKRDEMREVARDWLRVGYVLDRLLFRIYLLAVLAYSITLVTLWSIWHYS", "settings": "for effect on response evoked by maximal agonist concentration: compound 100 μM, 3 mM ACh", "procedure": "as §1, §2, §3"}, "[3]": {"target": "T2, human α7 nAChR (Homo sapiens, UniProt P36544)", "T2 construct": "expressed in transfected cells; host or cells: Xenopus laevis oocytes, injected with in vitro transcribed cRNA", "T2 sequence (P36544 23-502)": "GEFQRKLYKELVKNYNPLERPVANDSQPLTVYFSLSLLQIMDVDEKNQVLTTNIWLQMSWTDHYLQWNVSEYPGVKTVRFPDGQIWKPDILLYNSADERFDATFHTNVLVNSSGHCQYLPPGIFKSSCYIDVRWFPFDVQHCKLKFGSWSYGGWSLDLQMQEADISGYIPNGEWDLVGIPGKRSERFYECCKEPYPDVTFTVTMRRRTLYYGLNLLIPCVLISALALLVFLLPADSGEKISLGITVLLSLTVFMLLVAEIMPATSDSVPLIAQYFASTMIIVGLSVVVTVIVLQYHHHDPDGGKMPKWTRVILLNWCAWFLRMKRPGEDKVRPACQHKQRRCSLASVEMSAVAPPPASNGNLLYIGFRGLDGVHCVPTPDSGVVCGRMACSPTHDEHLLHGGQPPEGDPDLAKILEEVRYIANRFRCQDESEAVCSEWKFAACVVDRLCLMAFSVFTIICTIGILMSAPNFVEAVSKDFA", "experiment": "Two-electrode voltage-clamp recording of wild-type human α7 nAChR expressed in Xenopus oocytes", "assay_type": "cell-based", "settings": "for nature of antagonism against a range of ACh concentrations / response evoked by maximal agonist concentration in presence of compound: compound 100 μM; for response evoked by maximal agonist concentration in presence of compound: 3 mM ACh; for response to an EC50 concentration of ACh, % of the control response: compound 1 mM, ACh 100 μM; for effect when applied alone: no ACh; for activity at 100 µM: read-out: normalised response to EC50 ACh in presence of compound", "procedure": "as §2, with “Allosteric modulators were pre-applied for 30 s before co-application with agonist.” left out\nas §3"}, "[4]": {"target": "α7 nAChR T288A (Homo sapiens, UniProt P36544, T311A)", "sequence (P36544 23-502 T311A)": "as the sequence (P36544 23-502) above, with T289A counted along it", "experiment": "cell-based", "procedure": "as §1, §2, §3"}, "[5]": {"target": "α7 nAChR S248A (Homo sapiens, UniProt P36544, S271A)", "sequence (P36544 23-502 S271A)": "as the sequence (P36544 23-502) above, with S249A counted along it", "experiment": "cell-based", "procedure": "as §1, §2, §3"}, "[6]": {"target": "T3, α7 nAChR S222M (Homo sapiens, UniProt P36544, S245M)", "T3 construct": "expressed in transfected cells; host or cells: Xenopus laevis oocytes, injected with in vitro transcribed cRNA", "T3 sequence (P36544 23-502 S245M)": "as the sequence (P36544 23-502) above, with S223M counted along it", "experiment": "Two-electrode voltage-clamp recording of mutated α7 nAChR (S222M) in Xenopus oocytes", "assay_type": "cell-based", "procedure": "as §1, §2, §3"}, "[7]": {"target": "T4, α7 nAChR M260L (Homo sapiens, UniProt P36544, M283L)", "T4 construct": "expressed in transfected cells; host or cells: Xenopus laevis oocytes, injected with in vitro transcribed cRNA", "T4 sequence (P36544 23-502 M283L)": "as the sequence (P36544 23-502) above, with M261L counted along it", "experiment": "Two-electrode voltage-clamp recording of mutated α7 nAChR (M260L) in Xenopus oocytes", "assay_type": "cell-based", "settings": "for activity at 100 µM: read-out: normalised response to EC50 ACh in presence of compound", "procedure": "as §1, §2, §3"}, "[8]": {"target": "T5, α7 nAChR L247A (Homo sapiens, UniProt P36544, L247A/L270A)", "T5 construct": "expressed in transfected cells; host or cells: Xenopus laevis oocytes, injected with in vitro transcribed cRNA", "T5 sequence (P36544 23-502 L247A/L270A)": "as the sequence (P36544 23-502) above, with L225A, L248A counted along it", "experiment": "Two-electrode voltage-clamp recording of mutated α7 nAChR (L247A) in Xenopus oocytes", "assay_type": "cell-based", "procedure": "as §1, §2, §3"}, "[9]": {"settings": "co-application only, no pre-application"}, "[10]": {"settings": "read-out: normalised response to EC50 ACh in presence of compound"}, "[11]": {"settings": "furosemide 1 mM, EC50 agonist (100 μM ACh)"}, "[12]": {"settings": "furosemide 1 mM, maximal agonist (3 mM ACh)"}, "[13]": {"settings": "furosemide 1 mM, EC50 ACh (100 μM)"}}, "note": "Where two headings read alike, the source gives them in different places.", "data": [{"smiles": "CNS(=O)(=O)c1ccc(N/C=C2\\C(=O)Nc3ccccc32)cc1", "note": "[DB08122, N-methyl-4-{[(2-oxo-1,2-dihydro-3h-indol-3-ylidene)methyl]amino}b en z en esul fon ami de]", "values": [{"measurement": "response evoked by maximal agonist concentration in presence of compound", "setting": "[1]", "result": "did not cause significant inhibition"}, {"measurement": "effect on response evoked by maximal agonist concentration", "setting": "[2]", "result": "not significantly different to their effects on 5-HT3ARs"}, {"measurement": "IC50", "setting": "[3]", "result": "1700 ± 300", "unit": "µM"}, {"measurement": "type of allosteric modulation", "setting": "[3]", "result": "NAMs"}, {"measurement": "antagonism in the absence of pre-application", "setting": "[3]; [9]", "result": "significant antagonism"}, {"measurement": "nature of antagonism against a range of ACh concentrations", "setting": "[3]", "result": "non-surmountable"}, {"measurement": "response evoked by maximal agonist concentration in presence of compound", "setting": "[3]", "result": "76.0 ± 4.8", "unit": "%"}, {"measurement": "response to an EC50 concentration of ACh, % of the control response", "setting": "[3]", "result": "60.6 ± 1.2", "unit": "%"}, {"measurement": "effect when applied alone", "setting": "[3]; compound alone", "result": "None of the three compounds had any significant effect when applied alone"}, {"measurement": "activity at 100 µM", "setting": "[3]", "result": "90.6 ± 1.8", "unit": "%"}, {"measurement": "activity at 100 µM", "setting": "[4]; [10]", "result": "65 ± 1.2", "unit": "%"}, {"measurement": "activity at 100 µM", "setting": "[5]; [10]", "result": "99.6 ± 1.6", "unit": "%"}, {"measurement": "activity at 100 µM", "setting": "[6]; [10]", "result": "77.2 ± 3.7", "unit": "%"}, {"measurement": "activity at 100 µM", "setting": "[7]", "result": "101 ± 3.1", "unit": "%"}]}, {"smiles": "NS(=O)(=O)c1cc(C(=O)O)c(NCc2ccco2)cc1Cl", "note": "[furosemide, Furosemide]", "values": [{"measurement": "agonist effect when applied alone", "setting": "[1]; compound alone, no 5-HT", "result": "no agonist effect"}, {"measurement": "agonist-evoked response in presence of furosemide", "setting": "[1]; furosemide 1 mM, EC50 agonist (1 μM 5-HT)", "result": "93.9 ± 3.7", "unit": "%"}, {"measurement": "agonist-evoked response in presence of furosemide (potentiation)", "setting": "[1]; furosemide 1 mM, maximal agonist (30 μM 5-HT)", "result": "108 ± 2", "unit": "%"}, {"measurement": "agonist-evoked response in presence of furosemide", "setting": "[2]; [11]", "result": "98.2 ± 3.4", "unit": "%"}, {"measurement": "agonist-evoked response in presence of furosemide (potentiation)", "setting": "[2]; [12]", "result": "108 ± 2", "unit": "%"}, {"measurement": "type of allosteric modulation", "setting": "[3]", "result": "type I PAM"}, {"measurement": "potentiation of ACh responses in the absence of pre-application", "setting": "[3]; [9]", "result": "no significant potentiation"}, {"measurement": "maximum level of potentiation of ACh responses", "setting": "[3]; furosemide 1 mM", "result": "1.6 ± 0.1", "unit": "fold"}, {"measurement": "effect when applied alone", "setting": "[3]; furosemide 1 mM", "result": "no effect"}, {"measurement": "agonist-evoked response in presence of furosemide (potentiation)", "setting": "[3]; [11]", "result": "136 ± 7", "unit": "%"}, {"measurement": "agonist-evoked response in presence of furosemide (potentiation)", "setting": "[3]; [12]", "result": "149 ± 6", "unit": "%"}, {"measurement": "EC50", "setting": "[3]; read-out: EC50 for potentiation of agonist-evoked responses", "result": "200 ± 40", "unit": "µM"}, {"measurement": "ACh-evoked response in presence of furosemide, relative to control response", "setting": "[4]; [13]", "result": "99.2 ± 1.2", "unit": "%"}, {"measurement": "ACh-evoked response in presence of furosemide, relative to control response", "setting": "[5]; [13]", "result": "102 ± 5.6", "unit": "%"}, {"measurement": "potentiation of an EC50 concentration of ACh by furosemide", "setting": "[6]; [13]", "result": "244 ± 25", "unit": "%"}, {"measurement": "ACh-evoked response in presence of furosemide, relative to control response", "setting": "[8]; furosemide 1 mM, EC50 ACh (10 μM)", "result": "99.9 ± 4.3", "unit": "%"}, {"measurement": "agonist-evoked response in presence of furosemide, of the control response", "setting": "[7]; [13]", "result": "63 ± 8", "unit": "%"}]}, {"smiles": "Cc1cc(C)[n+](CCc2ccc(S(N)(=O)=O)cc2)c(C)c1", "note": "[DB04763, 1-N-(4-sulfamoylphenyl-ethyl)-2,4,6-tri methyl p yr id i ni u m]", "values": [{"measurement": "response evoked by maximal agonist concentration in presence of compound", "setting": "[1]", "result": "92.1 ± 1.7", "unit": "%"}, {"measurement": "effect on response evoked by maximal agonist concentration", "setting": "[2]", "result": "not significantly different to their effects on 5-HT3ARs"}, {"measurement": "type of allosteric modulation", "setting": "[3]", "result": "NAMs"}, {"measurement": "antagonism in the absence of pre-application", "setting": "[3]; [9]", "result": "significant antagonism"}, {"measurement": "nature of antagonism against a range of ACh concentrations", "setting": "[3]", "result": "non-surmountable"}, {"measurement": "response evoked by maximal agonist concentration in presence of compound", "setting": "[3]", "result": "20.0 ± 1.3", "unit": "%"}, {"measurement": "response to an EC50 concentration of ACh, % of the control response", "setting": "[3]", "result": "3.4 ± 0.9", "unit": "%"}, {"measurement": "effect when applied alone", "setting": "[3]; compound alone", "result": "None of the three compounds had any significant effect when applied alone"}, {"measurement": "IC50", "setting": "[3]; read-out: IC50 for inhibition of agonist-evoked responses", "result": "46.4 ± 2.2", "unit": "µM"}, {"measurement": "activity at 100 µM", "setting": "[3]", "result": "20.1 ± 3.1", "unit": "%"}, {"measurement": "activity at 100 µM", "setting": "[8]; [10]", "result": "52.4 ± 0.8", "unit": "%"}, {"measurement": "activity at 100 µM", "setting": "[7]", "result": "30.1 ± 2.4", "unit": "%"}]}]}
